Laboratory results reported in patent US20250100962A1 (CITY OF HOPE, priority 2023, published 2025).

Legend:
[1] = test system: U2OS cells containing Per2::dLuc luciferase reporter; test: Real-time bioluminescence monitoring of Per2::Luciferase reporter in U2OS cells (LumiCycle); format: cell-based; details: for LumiCycle Result: Clock activity (overall) / LumiCycle Result: Clock activity, Amplitude / LumiCycle Result: Clock activity, Period: U2OS Per2::dLuc; for LumiCycle Result: Clock activity (overall): CHX analogs screened; for LumiCycle Result: Clock activity, Amplitude / LumiCycle Result: Clock activity, Period: Table 1; for Modulatory Property: clock-modulatory classification
Procedure: U2OS cells or mouse fibroblasts (MF) containing a Per2-luciferase reporter (Yoo et al., 2004) were seeded at 4×10^5 concentration on 24 well plates and treated at 90% confluence with 1 ml 1×Fresh explant medium with desired compounds and controls. The seeding density was decided after trying several densities and choosing the one that after 24 h lead to 90% confluence. 1× Fresh explant medium was produced using 50% 2×DMEM buffer stock [DMEM powder (Gibco—Thermo Fisher CN: 12800-017), Sterile MilliQ water, pH7 1 M HEPES (Gibco—Thermo Fisher CN:15630080) and 7.5% Sodium Bicarbonate (Gibco—Thermo Fisher CN: 25080094)], 10% FBS (Cytiva), 37.9% Sterile MiliQ water, 1% PSG 100× (Gibco—Thermo Fisher CN: 10378016), 0.1% Sodium Hydroxixe (NaOH) 100 mM (Fishel Chemical CN: S318-500), 1% XenoLight D-Luciferin—Monopotassium Salt Bioluminiscent Substrate 100 mM (PerkinElmer CN: 122799). Treated cells were introduced to the LumiCycle96 (ActiMetrics) were they were cultured and Per2-luciferafe reporter luminescence was measured for 6 days. Raw and subtracted results for 5 days were exported and data was calculated as luminescence counts per second.

C2C12 myoblasts = test: Myogenic differentiation of C2C12 myoblasts; format: cell-based, mouse; details: Table 1 summary of CHX analogs
Procedure: Pictures were taken every day to monitor morphological progression, and proteins and RNA samples were collected on days indicated.
C2C12, C2C12 Bmal1 KD and C2C12 Scrambled control (SC) myoblasts were seeded at Day −1 at 2×105 concentration on 12 wells plates and maintained in 10% FBS until 80% confluency and treated with indicated compounds and controls in 2% FBS DMEM media to induce differentiation on Day 0. On days 3, 5 and 7 cells were fixed with 4% paraformaldehyde (from 37% Formaldehyde Baker Analyzed) and kept at 4° C. in PBS. Cells were permeabilized with Permeabilization solution of 0.5% Triton X-100 (Fisher Bioreagents CN: 9002-93-1) in PBS and blocked with Blocking solution of 1% BSA (Fisher Bioreagents CN:9048-46-8) in PBS. Primary antibodies were diluted in Washing solution of 0.01% Triton X-100 (Fisher Bioreagents CN: 9002-93-1) in PBS and left overnight at 4° C. Cells were then incubated with secondary antibodies in Washing solution at room temperature for 1 h. 1 μg/ml 4′,6′-diamidine-2′-phenylindole dihydrochloride (DAPI) was used to label for nuclei. […] To quantify the proliferation of myoblast, when needed, cells were treated with 1 μg/ml of EdU for 3 h before fixation. Detection of EdU was performed with Click-iT EdU Alexa Fluor 488 Imaging Kit before applying the immunofluorescence staining as described above.

CLOCK protein = CLOCK protein palmitoylation (acyl-biotin exchange) and stability; format: cell-based
Source text: FIGS. 11A-11C. Analysis of CLOCK protein S-palmitoylation. FIGS. 11A-11B: Identification of CLOCK palmitoylation by acyl-biotin exchange method using hydroxylamine (HAM). […] FIG. 11C: Structural modeling of the palmitoylation pocket and the docking pose within the hydrophobic pocket that lies between the interface of CLOCK interaction with Bmal1. FIGS. 12A-12C. Palmitoylation modulates CLOCK protein stability and interaction with Bmal1. […] FIG. 12B: CLOCK palmitoylation cysteine mutations inhibit its interaction with heterodimer partner Bmal1 and Bmal1 stability by single amino acid mutations. FIG. 12C: CLOCK palmitoylation site mutations attenuated CLOCK-mediated transcription activation.

mice = details: chow and high-fat diet; Xiong et al., 2023; cited from earlier work

Compound	LumiCycle Result: Clock activity (overall) [1]	LumiCycle Result: Clock activity, Amplitude [1]	Myogenesis (C2C12 myoblasts)	also measured
CCCCCCCNC(=N)Nc1nc2ccc(Cl)cc2[nH]1 [CM007]	No effect	–	–	–
N=C(NCCCCCCNC(=N)Nc1ccc(Cl)cc1)Nc1ccc(Cl)cc1 [CM004]	–	Amplitude: Increased	Enhanced	LumiCycle Result: Clock activity, Period [1]: Period: Shortening; Modulatory Property [1]: Activator
CCCCCCCCCCCCCCC(Br)C(=O)O (centres unmarked) [2-BrP]	–	–	–	CLOCK protein stability (CLOCK protein): reduces CLOCK protein stability; CLOCK palmitoylation (CLOCK protein; Flag-tagged CLOCK in HEK 293T cells): loss of CLOCK palmitoylation
CCCCCCCCCCC[C@@H](C[C@@H]1OC(=O)[C@H]1CCCCCC)OC(=O)[C@H](CC(C)C)NC=O [Orlistat]	–	–	–	CLOCK protein stability (CLOCK protein): reduces CLOCK protein stability
COc1ccc(-c2cc(=O)c3c(OC)c(OC)c(OC)c(OC)c3o2)cc1OC [Nobiletin]	–	–	–	anti-obesity effect (mice): strong anti-obesity effect
N=C(NCCCCCCCCCCCCCCNC(=N)NC(=N)Nc1ccc(Cl)cc1)NC(=N)Nc1ccc(Cl)cc1 [CM005]	–	Amplitude: Increased at low	Slight inhition	LumiCycle Result: Clock activity, Period [1]: Period: Lengthening; Modulatory Property [1]: Inhibitor
N=C(NCCCCCCNC(N)=O)NC(=N)Nc1ccc(Cl)cc1 [CM008]	Cellular toxicity	–	–	–
CCCCCCCNC(=N)NC(=N)Nc1ccc(Cl)cc1 [CM001]	–	Amplitude: No effect	No effect	–
N=C(NCCCCCCNC(=N)Nc1ccc(Cl)cc1)NC(=N)Nc1ccc(Cl)cc1 [CM003]	No effect	–	–	–
